From US6537965B1, “Amino-terminal modified parathyroid hormone (PTH) analogs” (The General Hospital Corporation, priority 1998, dated 2003)
“Also recorded” adds a separate entry of the source.

Key:
hPTH-2 receptors [1] = target: T1, hPTH-2 receptors (Homo sapiens, UniProt P49190); assay: cAMP measurements in clonal LLC-PK1 cells (HPR2-7); assay type: cell-based; settings: HPR2-7 cells; average level
T1 construct: expressed in transfected cells
Description: (§1) The following cell lines were used in these studies. HKRK C53 subclones of LLC-PKI porcine renal epithelial cells which stably express human PTH-1 receptors (150,000 receptors/cell). SaOS-2 cells are transformed human osteosarcoma cells which express relatively few (10,000-20,000 per cell) human PTH-1 receptors. HPR2-7 cells are subclones of LLC-PK1 which express approximately 250,000 recombinant human PTH-2 receptors per cell. […] The HPR2-27 and HPR2-22 cell lines were created in the same fashion as the HKRK cells but employing instead type 2 PTH receptor cDNA using the transfection technique of (Bringhurst, F. R., et al., Endocrinology 132(5):2090-2098 (1993); Guo, J., et al., Endocrinology 136(9):3884-3891 (1995)).
(§2) Intracellular cAMP accumulation, PLC activation and PTHR binding affinity were measured as previously reported (Bringhurst, F. R., et al., Endocrinology 132(5):2090-2098 (1993); Guo, J., et al., Endocrinology 136(9):3884-3891 (1995)). Intracellular cAMP accumulation was measured in extracts of cells that were exposed to human PTH peptides in the presence of isobutylmethyxanthine (IBMX, 1 mM) at 37° C. for 15 min. After terminating the reactions by aspiration and freezing in liquid nitrogen, cell monolayers were extracted with 50 mM HCl and cAMP was measured using a radioimmunoassay kit (Dupont-New England Nuclear, Boston, Mass.).

hPTH-2 receptors [2] = target: T1, hPTH-2 receptors; assay: radioligand competition binding to HPR2-7 cells; settings: average level
Protocol: (§3) Radioligand competition binding assays were performed at 2-8° C. for 6 hr using ^125I-[Nle^8,21]rat PTH-(1-34) (100,000 cpm/well) in the presence or absence of non-radioactive hPTH-(1-34) analogs. Cell layers were washed three times before solubilization for determination of cell-associated radioactivity.

hPTH-2 receptors [3] = target: T1, hPTH-2 receptors; assay: cAMP accumulation in HPR2-22 cells; assay type: cell-based; settings: average level
Description: The following cell lines were used in these studies. HKRK C53 subclones of LLC-PKI porcine renal epithelial cells which stably express human PTH-1 receptors (150,000 receptors/cell). SaOS-2 cells are transformed human osteosarcoma cells which express relatively few (10,000-20,000 per cell) human PTH-1 receptors. HPR2-7 cells are subclones of LLC-PK1 which express approximately 250,000 recombinant human PTH-2 receptors per cell. HKRK-B7 cells are subclones of LLC-PK which stably express approximately 1 million hPTH-1 receptors per cell. HPR2-22 cells are subclones of LLC-PK1 which express 1.5 million recombinant hPTH-2 receptors per cell. […]
as §2

hPTH-1 receptors [4] = target: T2, hPTH-1 receptors (Homo sapiens, UniProt Q03431); assay: cAMP accumulation (adenylyl cyclase activation) in HKRK C53 cells; assay type: cell-based; parameters: expressed in transfected cells; settings: HKRK C53 cells
T2 sequence (Q03431 27-593): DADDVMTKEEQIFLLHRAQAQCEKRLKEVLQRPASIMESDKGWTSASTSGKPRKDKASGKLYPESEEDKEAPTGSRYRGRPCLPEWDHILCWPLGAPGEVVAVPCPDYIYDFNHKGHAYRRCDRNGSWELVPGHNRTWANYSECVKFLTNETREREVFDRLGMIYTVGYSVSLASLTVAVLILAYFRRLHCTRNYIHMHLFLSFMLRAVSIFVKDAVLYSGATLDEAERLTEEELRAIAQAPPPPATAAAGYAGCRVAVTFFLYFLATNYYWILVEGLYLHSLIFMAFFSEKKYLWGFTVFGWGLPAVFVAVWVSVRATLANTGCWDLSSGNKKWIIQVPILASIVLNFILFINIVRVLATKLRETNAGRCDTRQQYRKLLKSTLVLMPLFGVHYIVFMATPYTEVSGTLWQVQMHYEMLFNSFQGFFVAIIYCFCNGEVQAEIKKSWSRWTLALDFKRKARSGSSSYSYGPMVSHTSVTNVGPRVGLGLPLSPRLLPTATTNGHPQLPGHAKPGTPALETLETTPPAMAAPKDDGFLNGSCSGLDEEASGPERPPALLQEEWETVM
Description: as §1, §2

hPTH-1 receptors [5] = target: T2, hPTH-1 receptors; assay: phospholipase C (PLC) activity in HKRK-B7 cells; assay type: cell-based; parameters: expressed in transfected cells; settings: about 1 million hPTH-1 receptors per cell, 1000 nM (FIG. 4)
Description: (§4) The following cell lines were used in these studies. HKRK C53 subclones of LLC-PKI porcine renal epithelial cells which stably express human PTH-1 receptors (150,000 receptors/cell). SaOS-2 cells are transformed human osteosarcoma cells which express relatively few (10,000-20,000 per cell) human PTH-1 receptors. HPR2-7 cells are subclones of LLC-PK1 which express approximately 250,000 recombinant human PTH-2 receptors per cell. HKRK-B7 cells are subclones of LLC-PK which stably express approximately 1 million hPTH-1 receptors per cell. HPR2-22 cells are subclones of LLC-PK1 which express 1.5 million recombinant hPTH-2 receptors per cell. The HPR2-27 and HPR2-22 cell lines were created in the same fashion as the HKRK cells but employing instead type 2 PTH receptor cDNA using the transfection technique of (Bringhurst, F. R., et al., Endocrinology 132(5):2090-2098 (1993); Guo, J., et al., Endocrinology 136(9):3884-3891 (1995)).
(§5) PLC was activated by PTH agonists in the presence of 30 mM LiCl at 37° C. for 30 min after 16 hr of labeling with [^3H]myo-inositol (3uCi/ml) in serum-free medium containing 0.1% bovine serum albumin. The reactions were stopped by rapid aspiration and addition of cold 5% TCA. Water-soluble radiolabeled inositol trisphosphate (IP3) was isolated after ether extraction by ion-exchange chromatography (Guo, J., et al., Endocrinology 136(9):3884-3891 (1995)). In experiments involving HEK 293 cells, cells previously transfected with human PTHR cDNA (in the pcDNA1 expression vector HKRK) using Lipofectamine (Gibco BRL) were labeled with [^3H]myo-inositol and assayed as described above, except that total water-soluble [^3H]inositol polyphosphates were collected as a single fraction from the ion-exchange columns.

hPTH-1 receptors [6] = target: T2, hPTH-1 receptors; assay: radioligand competition binding to HKRK B28 cells; parameters: expressed in transfected cells
Protocol: as §3

hPTH-1 receptors [7] = target: T2, hPTH-1 receptors; assay: IP3 formation in HKRK C53 cells; assay type: cell-based; parameters: expressed in transfected cells; settings: average level
Description: as §4
PLC was activated by PTH agonists in the presence of 30 mM LiCl at 37° C. for 30 min after 16 hr of labeling with [^3H]myo-inositol (3uCi/ml) in serum-free medium containing 0.1% bovine serum albumin. The reactions were stopped by rapid aspiration and addition of cold 5% TCA. Water-soluble radiolabeled inositol trisphosphate (IP3) was isolated after ether extraction by ion-exchange chromatography (Guo, J., et al., Endocrinology 136(9):3884-3891 (1995)). […]

hPTH-1 receptors [8] = target: T2, hPTH-1 receptors; assay: radioligand binding to HKRK C53 cells; parameters: expressed in transfected cells; settings: average level
Description: as §4, §3

hPTH-1 receptors [9] = target: T2, hPTH-1 receptors; assay: cAMP accumulation in HKRK B28 cells; assay type: cell-based; parameters: expressed in transfected cells; settings: average level
Protocol: as §2

hPTH-2 receptors [10] = target: T1, hPTH-2 receptors; assay: phospholipase C activation in HPR2-22 cells; assay type: cell-based; settings: 1.5 million hPTH-2 receptors per cell, 1,000 nM (FIG. 5)
Description: as §4, §5

hPTH-1 receptors [11] = target: T2, hPTH-1 receptors; assay: cAMP measurements in SaOS-2 cells; assay type: cell-based; parameters: expressed in transfected cells; settings: SaOS-2 cells, 10,000-20,000 human PTH-1 receptors per cell; up to 1 uM (FIG. 2)
Description: as §4, §2

hPTH-1 receptors [12] = target: T2, hPTH-1 receptors; assay: AC activation in HKRK B7 cells; assay type: cell-based; parameters: expressed in transfected cells; settings: HKRK B7 cells (large number of human PTH-1 receptors)
Description: as §4, §2

hPTH-1 receptors [13] = target: T2, hPTH-1 receptors; assay: PLC activation in HEK-293 cells transiently transfected with human PTHR cDNA; assay type: cell-based; parameters: expressed in transfected cells; host or cells: HEK-293 human embryonic kidney cells, transient transfection with Lipofectamine; settings: HEK-293 cells transiently transfected with human PTHR cDNA (data not shown)
Protocol: as §5

T1 sequence (P49190 25-550): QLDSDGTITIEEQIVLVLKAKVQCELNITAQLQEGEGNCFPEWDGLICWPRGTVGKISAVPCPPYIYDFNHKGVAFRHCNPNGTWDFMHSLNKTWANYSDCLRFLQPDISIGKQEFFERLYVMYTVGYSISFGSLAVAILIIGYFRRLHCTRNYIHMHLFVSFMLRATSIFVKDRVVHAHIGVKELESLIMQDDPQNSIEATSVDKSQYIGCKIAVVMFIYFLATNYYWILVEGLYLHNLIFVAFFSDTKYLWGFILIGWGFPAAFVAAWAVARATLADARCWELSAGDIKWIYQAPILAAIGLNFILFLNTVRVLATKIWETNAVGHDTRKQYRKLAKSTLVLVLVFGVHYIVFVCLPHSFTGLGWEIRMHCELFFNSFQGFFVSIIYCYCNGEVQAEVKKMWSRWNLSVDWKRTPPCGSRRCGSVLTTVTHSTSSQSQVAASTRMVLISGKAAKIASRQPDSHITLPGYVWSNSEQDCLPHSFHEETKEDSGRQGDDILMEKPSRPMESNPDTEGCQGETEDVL

cAMP accumulation in the presence of maximal concentrations of peptide (hPTH-2 receptors [1]) [pmoles/well/15 min]	binding in the presence of maximal concentrations of peptide (hPTH-2 receptors [2]) [cpm/well]	cAMP accumulation in the presence of maximal concentrations of peptide (hPTH-2 receptors [3]) [pmoles/well/15 min]	cAMP accumulation in the presence of maximal concentrations of peptide (hPTH-1 receptors [4]; average level) [pmoles/well/15 min]	activation of PLC (hPTH-1 receptors [5])	binding in the presence of maximal concentrations of peptide (hPTH-1 receptors [6]; HKRK B28 cells, average level)	IP3 formation in the presence of maximal concentrations of peptide (hPTH-1 receptors [7]) [cpm/well]	binding in the presence of maximal concentrations of peptide (hPTH-1 receptors [8]) [cpm/well]	cAMP accumulation in the presence of maximal concentrations of peptide (hPTH-1 receptors [9]) [pmoles/well/15 min]	activation of phospholipase C (hPTH-2 receptors [10])	cyclic AMP accumulation, efficacy compared with native hPTH(1-34)NH2 (hPTH-1 receptors [4]; about 150,000 hPTH-1 receptors per cell, 10^-9M and 10^-7M peptide (FIG. 1))	cyclase (cAMP) activity compared with control hPTH(1-34) (hPTH-1 receptors [11])	activation of PLC (hPTH-1 receptors [5]; listed as Human PTH(2-34))	competitive displacement of 125I-[Nle8,21]rPTH(1-34) radioligand binding (hPTH-1 receptors [6]; HKRK B28 cells, 280,000 human PTH-1 receptors/cell (FIG. 6))	activation of PLC (hPTH-1 receptors [13])	Molecule	activation of AC compared with hPTH-(1-34) (hPTH-1 receptors [12])
133±14	4541±386	286±8	207±37	fill agonists	16,137±919 cpm/well	1908±251	956±135	337±55	–	–	–	–	–	–	CC[C@H](C)[C@H](NC(=O)[C@H](CCC(=O)O)NC(=O)[C@H](CO)NC(=O)[C@@H](NC(=O)[C@@H](N)CO)C(C)C)C(=O)N[C@@H](CCC(N)=O)C(=O)N[C@@H](CC(C)C)C(=O)N[C@@H](CCSC)C(=O)N[C@@H](Cc1c[nH]cn1)C(=O)N[C@@H](CC(N)=O)C(=O)N[C@@H](CC(C)C)C(=O)NCC(=O)N[C@@H](CCCCN)C(=O)N[C@@H](Cc1c[nH]cn1)C(=O)N[C@@H](CC(C)C)C(=O)N[C@@H](CC(N)=O)C(=O)N[C@@H](CO)C(=O)N[C@@H](CCSC)C(=O)N[C@@H](CCC(=O)O)C(=O)N[C@@H](CCCNC(=N)N)C(=O)N[C@H](C(=O)N[C@@H](CCC(=O)O)C(=O)N[C@@H](Cc1c[nH]c2ccccc12)C(=O)N[C@@H](CC(C)C)C(=O)N[C@@H](CCCNC(=N)N)C(=O)N[C@@H](CCCCN)C(=O)N[C@@H](CCCCN)C(=O)N[C@@H](CC(C)C)C(=O)N[C@@H](CCC(N)=O)C(=O)N[C@@H](CC(=O)O)C(=O)N[C@H](C(=O)N[C@@H](Cc1c[nH]cn1)C(=O)N[C@@H](CC(N)=O)C(=O)N[C@@H](Cc1ccccc1)C(N)=O)C(C)C)C(C)C [hPTH(1-34)NH2]	–
–	–	–	–	did not elicit PLC activity	–	–	–	–	only a partial agonist	similarly reduced activity	very weak agonists	inactive	binds as well	inability	hPTH(2-34): N-truncated human PTH peptide, residues 2-34 (VSEIQLMHNLGKHLNSMERVEWLRKKLQDVHNF)	comparable in magnitude and sensitivity to that of hPTH-(1-34); also recorded: approximately equipotent
